In ChEMBL document CHEMBL1201862, “PubChem BioAssay data set” (2004):
The source made the active and inactive calls.

Columns and labels:
[1] = Luminescence Cell-Based Dose Response HTS to Identify Activators of Luciferase Translation or Activity in H4 […] Cells. [Related pubchem assays: 1829 (Project Summary), 1814 (Primary HTS)]; type: functional
H4 = assay: Luminescence Cell-Based Dose Response HTS to Identify Activators of 5'UTR Stem-Loop Driven Prion Protein mRNA Translation in H4 Neuroglioblastoma Cells. [Related pubchem assays: 1829 (Project Summary), 1814 (Primary HTS)]; type: functional; details: Homo sapiens
Major prion protein = Major prion protein (Homo sapiens, UniProt P04156); type: functional, cell-based
cells [2] = assay: cells
[3] = target: T1, Corticotropin-releasing factor receptor 2/Corticotropin-releasing factor-binding protein (Homo sapiens, UniProt P24387+Q13324); assay: Dose Response confirmation of uHTS hits for small molecule antagonists of the CRF-binding protein and CRF-R2 receptor complex.; type: functional; details: read-out: IC50_Mean
T1 sequence (Q13324 whole entry): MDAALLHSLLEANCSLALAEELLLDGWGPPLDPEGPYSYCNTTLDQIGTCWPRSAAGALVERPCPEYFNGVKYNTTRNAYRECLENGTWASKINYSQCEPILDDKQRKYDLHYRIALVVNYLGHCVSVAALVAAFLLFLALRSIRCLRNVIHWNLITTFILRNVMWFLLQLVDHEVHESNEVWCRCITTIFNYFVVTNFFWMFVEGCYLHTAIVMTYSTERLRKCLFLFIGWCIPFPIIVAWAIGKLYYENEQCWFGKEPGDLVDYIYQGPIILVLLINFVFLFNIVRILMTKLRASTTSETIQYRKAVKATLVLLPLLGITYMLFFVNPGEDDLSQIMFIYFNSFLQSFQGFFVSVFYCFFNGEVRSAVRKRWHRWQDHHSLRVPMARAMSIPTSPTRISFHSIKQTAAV
T1 sequence (P24387 whole entry): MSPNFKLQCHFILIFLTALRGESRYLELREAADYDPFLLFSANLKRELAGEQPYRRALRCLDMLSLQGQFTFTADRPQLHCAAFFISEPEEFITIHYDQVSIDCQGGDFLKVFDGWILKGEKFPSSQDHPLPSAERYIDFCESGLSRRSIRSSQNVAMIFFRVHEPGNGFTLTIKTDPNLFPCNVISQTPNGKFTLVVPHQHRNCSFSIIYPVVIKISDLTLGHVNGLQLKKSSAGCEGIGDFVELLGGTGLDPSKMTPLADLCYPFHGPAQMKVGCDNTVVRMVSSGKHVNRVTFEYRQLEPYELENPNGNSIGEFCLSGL

[4] = target: T1, Corticotropin-releasing factor receptor 2/Corticotropin-releasing factor-binding protein; assay: activators of CRF receptor 2 with binding protein – uHTS hits, confirmation (AID 602473); type: functional; details: read-out: EC50_Mean
[5] = target: T2, RNA-binding protein pos-1 (Caenorhabditis elegans, UniProt G5EF15); assay: inhibitors of POS-1/mex-3 RNA binding, dose response, biochemical, fluorescence polarization (AID 1964);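 further: purified POS-1 fused to maltose binding protein made in E. coli; potency of compounds blocking POS-1 binding to fluorescent RNA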
T2 sequence (G5EF15 whole entry): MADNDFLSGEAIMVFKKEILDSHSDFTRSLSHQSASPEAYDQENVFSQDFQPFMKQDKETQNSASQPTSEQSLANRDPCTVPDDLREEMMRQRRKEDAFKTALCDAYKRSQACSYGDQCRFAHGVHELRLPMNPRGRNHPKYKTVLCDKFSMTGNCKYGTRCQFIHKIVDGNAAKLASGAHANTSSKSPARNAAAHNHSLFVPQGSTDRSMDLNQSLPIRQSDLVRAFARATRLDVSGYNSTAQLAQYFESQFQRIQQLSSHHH

[6] = Luminescence Cell-Based Dose Confirmation HTS to Identify Activators of 5'UTR Stem-Loop Driven Alpha-Synuclein mRNA Translation in H4 Neuroglioblastoma Cells. [Related pubchem assays: 1829 (Project Summary), 1814 (Primary HTS)]; type: functional
[7] = target: T3, Zinc finger protein mex-5 (Caenorhabditis elegans, UniProt Q9XUB2); assay: MEX-5/TCR-2 RNA interaction inhibitors, dose response, biochemical, C. elegans, fluorescence polarization (AID 1960)
T3 sequence (Q9XUB2 whole entry): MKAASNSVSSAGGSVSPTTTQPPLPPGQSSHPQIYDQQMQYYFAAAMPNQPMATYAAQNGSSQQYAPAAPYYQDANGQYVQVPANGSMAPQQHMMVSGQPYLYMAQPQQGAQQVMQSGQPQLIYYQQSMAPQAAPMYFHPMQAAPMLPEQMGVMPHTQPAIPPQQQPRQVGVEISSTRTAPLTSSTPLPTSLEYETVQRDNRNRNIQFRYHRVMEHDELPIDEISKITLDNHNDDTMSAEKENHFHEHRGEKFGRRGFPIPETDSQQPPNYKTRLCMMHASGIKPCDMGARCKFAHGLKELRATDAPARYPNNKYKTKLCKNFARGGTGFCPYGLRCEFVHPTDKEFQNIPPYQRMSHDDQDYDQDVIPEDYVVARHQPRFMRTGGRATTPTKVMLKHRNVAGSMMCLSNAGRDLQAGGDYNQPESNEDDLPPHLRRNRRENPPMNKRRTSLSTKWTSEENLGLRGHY

[8] = target: T4, Sentrin-specific protease 1 (Homo sapiens, UniProt Q9P0U3); assay: potency of human SENP1 inhibitors, dose response, biochemical, kinetic FRET (AID 651697); type: functional; details: read-out: IC50_Mean
T4 sequence (Q9P0U3 whole entry): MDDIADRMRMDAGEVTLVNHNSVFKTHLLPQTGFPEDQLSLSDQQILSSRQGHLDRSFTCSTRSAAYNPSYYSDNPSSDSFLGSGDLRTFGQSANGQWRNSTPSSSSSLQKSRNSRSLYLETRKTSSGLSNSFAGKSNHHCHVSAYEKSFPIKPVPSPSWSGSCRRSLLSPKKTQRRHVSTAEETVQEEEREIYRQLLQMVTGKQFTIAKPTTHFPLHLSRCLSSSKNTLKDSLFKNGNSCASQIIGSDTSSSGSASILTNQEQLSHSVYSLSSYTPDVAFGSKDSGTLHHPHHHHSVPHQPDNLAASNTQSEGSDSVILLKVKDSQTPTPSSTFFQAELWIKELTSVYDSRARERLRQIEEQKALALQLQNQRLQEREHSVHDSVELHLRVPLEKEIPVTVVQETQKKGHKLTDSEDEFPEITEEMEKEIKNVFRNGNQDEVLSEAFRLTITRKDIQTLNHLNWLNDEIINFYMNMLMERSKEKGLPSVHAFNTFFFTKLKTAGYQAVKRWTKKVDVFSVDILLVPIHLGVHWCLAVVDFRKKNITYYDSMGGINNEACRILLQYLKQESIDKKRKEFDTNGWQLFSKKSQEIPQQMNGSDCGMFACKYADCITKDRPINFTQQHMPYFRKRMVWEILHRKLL

[9] = target: T5, Methionyl-tRNA synthetase, putative (Trypanosoma brucei brucei, UniProt Q38C91); type: functional, Trypanosoma brucei brucei strain 927/4 GUTat10.1
T5 sequence (Q38C91 whole entry): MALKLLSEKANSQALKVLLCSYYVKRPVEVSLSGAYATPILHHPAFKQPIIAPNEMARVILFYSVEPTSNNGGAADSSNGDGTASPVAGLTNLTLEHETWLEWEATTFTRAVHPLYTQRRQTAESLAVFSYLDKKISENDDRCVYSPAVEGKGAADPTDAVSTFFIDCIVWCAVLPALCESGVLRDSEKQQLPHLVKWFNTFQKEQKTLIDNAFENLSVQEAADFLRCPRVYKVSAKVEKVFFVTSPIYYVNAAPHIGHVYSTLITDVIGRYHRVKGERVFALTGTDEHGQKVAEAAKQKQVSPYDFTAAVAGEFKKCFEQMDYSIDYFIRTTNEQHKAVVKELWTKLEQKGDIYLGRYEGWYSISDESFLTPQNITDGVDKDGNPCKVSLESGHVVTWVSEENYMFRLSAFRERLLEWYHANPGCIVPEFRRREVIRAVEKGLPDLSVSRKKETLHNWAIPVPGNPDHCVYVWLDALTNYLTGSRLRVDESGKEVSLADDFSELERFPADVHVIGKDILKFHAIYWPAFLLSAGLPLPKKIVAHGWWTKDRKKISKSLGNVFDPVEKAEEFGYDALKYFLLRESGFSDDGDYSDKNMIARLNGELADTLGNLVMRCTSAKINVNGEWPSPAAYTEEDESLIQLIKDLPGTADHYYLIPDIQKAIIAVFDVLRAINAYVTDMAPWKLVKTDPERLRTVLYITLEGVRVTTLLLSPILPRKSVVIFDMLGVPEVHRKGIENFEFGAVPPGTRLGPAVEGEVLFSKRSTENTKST

[10] = Counterscreen for inhibitors of Trypanosoma brucei methionyl tRNA synthetase (MetRS): Luminescence-based cell-based high throughput dose response assay to identify compounds that are cytotoxic to Jurkat human T lymphocyte cells.; type: functional
[11] = target: T5, Methionyl-tRNA synthetase, putative; type: functional, Trypanosoma brucei brucei strain 927/4 GUTat10.1; remark: listed apart in the source
Beta-lactamase [12] = target: Beta-lactamase (Salmonella choleraesuis (strain SC-B67), UniProt Q5J463); assay: Epi-absorbance-based counterscreen for selective VIM-2 inhibitors: dose response biochemical high throughput screening assay to identify inhibitors of TEM-1 serine-beta-lactamase.
Beta-lactamase [13] = target: T6, Beta-lactamase (Pseudomonas aeruginosa, UniProt Q79MP6); assay: IMP-1 metallo-beta-lactamase inhibitors, dose response, selectivity assay for VIM-2 inhibitor project, biochemical, epi-absorbance (AID 1920)
Beta-lactamase [14] = target: T6, Beta-lactamase; assay: […] counterscreen for selective VIM-2 inhibitors: dose response biochemical high throughput screening assay to identify inhibitors of IMP-1 metallo-beta-lactamase.
cells [15] = type: functional, cell-based
[16] = target: T7, Trace amine-associated receptor 1 (Homo sapiens, UniProt Q96RJ0); assay: Fluorescence-based cell-based high throughput dose response assay to identify agonists of the human trace amine associated receptor 1 (TAAR1).; type: functional
T7 sequence (Q96RJ0 whole entry): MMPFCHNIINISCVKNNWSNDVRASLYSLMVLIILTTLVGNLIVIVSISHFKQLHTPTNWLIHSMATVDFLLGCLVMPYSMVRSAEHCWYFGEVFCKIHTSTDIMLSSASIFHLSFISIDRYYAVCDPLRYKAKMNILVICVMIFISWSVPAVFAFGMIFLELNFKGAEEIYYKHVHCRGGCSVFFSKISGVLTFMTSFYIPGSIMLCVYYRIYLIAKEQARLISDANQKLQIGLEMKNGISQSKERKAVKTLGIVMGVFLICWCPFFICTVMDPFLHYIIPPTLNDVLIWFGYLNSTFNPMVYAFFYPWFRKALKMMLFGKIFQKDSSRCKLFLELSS

[17] = target: T7, Trace amine-associated receptor 1; assay: Counterscreen for agonists of the human trace amine associated receptor 1 (hTAAR1): Fluorescence-based cell-based high throughput dose response assay to identify hTAAR1 agonist that also desensitize TAAR1 receptor response.; type: functional
cells [18] = type: functional, cell-based; remark: listed apart in the source
[19] = target: Arf-GAP with SH3 domain, ANK repeat and PH domain-containing protein 1 (Homo sapiens, UniProt Q9ULH1); type: functional;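 further: biochemical fluorescence polarization dose–response screen measuring inhibition of ASAP1; ASAP1 GAP domain stimulating GTP hydrolysis by truncated human ARF1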
[20] = LMP1-driven NF-kB reporter inhibition, dose response, cell-based, luciferase reporter, luminescence, dry powder, set 2 (AID 624376); type: functional
[21] = HEK293 cell cytotoxicity, dose response, cytotoxicity control, cherry-picks, set 5 (AID 1053117); type: functional, cell-based

## CC1CCCN(C(=O)CSc2cnc3ccccc3n2)C1 (stereo unspecified)
[1]
  EC50: 5.25 µM (active)
H4
  EC50: 11 µM (active)
Major prion protein
  IC50: 5.87 µM (active)
Cells [2]
  IC50: > 138 µM (inactive)

## COc1ccc2c(C)cc(SCc3c(C)noc3C)nc2c1
[3]
  IC50: > 47.1 µM (inactive)
[4]
  EC50: > 53 µM (inactive)
Major prion protein
  IC50: 4.31 µM (active)
Cells [2]
  IC50: > 138 µM (inactive)

## COc1ccc(P2(=O)Nc3ccccc3N2)cc1
[5]
  EC50: > 300 µM (not active)
[6]
  EC50: > 120 µM (not active)
[1]
  EC50: 10.5 µM (active)
H4
  EC50: 7.44 µM (active)
[7]
  EC50: 103 µM (active)
[8]
  IC50: 74.3 µM (inactive)

## Cc1ccc(NC(=O)C(C)c2cccc(C(=O)c3ccccc3)c2)cc1 (stereo unspecified)
[9]
  IC50: 7.61 µM (active)
[10]
  IC50: 83.3 µM (inactive)
[11]
  IC50: 3.15 µM (active)

## O=C(CSc1nnc(NC(=O)c2c(F)cccc2F)s1)NCc1ccccc1
Beta-lactamase [12]
  IC50: > 59.6 µM (inactive)
Beta-lactamase [13]
  IC50: > 59.6 µM (inactive)
Beta-lactamase [14]
  IC50: > 59.6 µM (inactive)

## O=C(O)C1C2C=CC(C2)C1C(=O)NCCc1ccccc1 (stereo unspecified)
Cells [15]
  IC50: > 29.9 µM (inactive)
[16]
  EC50: 0.14 µM (active)
[17]
  IC50: 5.26 µM (active)
Cells [18]
  EC50: > 29.9 µM (inactive)

## COc1ccc(/C=C2\C(=O)NC(=O)c3ccccc32)cc1OC
[19]
  IC50: 165 µM (inactive)

## OC(c1cc(F)cc(Cl)c1)c1nc(-c2cccc(C(F)(F)F)c2)c[nH]1 (stereo unspecified)
[9]
  IC50: 27.7 µM (inactive)
[10]
  IC50: 42.2 µM (inactive)
[11]
  IC50: 17.5 µM (inactive)

## O=C(N[C@@H](Cc1cccnc1)C(=O)N1CCC[C@H]1C(=O)NCCc1ccccc1Cl)c1ccccc1
Cells [15]
  IC50: > 29.9 µM (inactive)
[16]
  EC50: 4.3 µM (active)
[17]
  IC50: 5.16 µM (active)
Cells [18]
  EC50: > 29.9 µM (inactive)

## Cc1noc(C)c1S(=O)(=O)Nc1ccc2c(c1)C(=O)N([C@@H](C)CO)C[C@@H](C)[C@H](CN(C)Cc1ccc(C(F)(F)F)cc1)OCCCC[C@@H](C)O2
[20]
  AbsAC35: 151.1 µM

## C[C@H]1CN([C@@H](C)CO)C(=O)c2c(c3ccccc3n2C)-c2ccccc2CO[C@@H]1CN(C)C(=O)Nc1ccc(F)cc1
[20]
  AbsAC35: 78.41 µM

## C[C@H]1CN([C@@H](C)CO)C(=O)c2cc(-c3ccccc3)cnc2O[C@H]1CN(C)C(=O)c1cccc(F)c1
[21]
  AC50: > 52 µM (inactive)

## Cc1ccc(/C=N/NC(=O)CCCOc2ccc(Cl)cc2Cl)cc1[N+](=O)[O-]
[19]
  IC50: 26.1 µM (inactive)
